Measured values from article doi:10.1101/2025.04.10.648262, “Time-resolved phenotyping at subcellular resolution reveals shared principles and key trade-offs across antimicrobial peptide activities” (bioRxiv, 2026).
Like-named read-outs stand apart in the source and are kept apart here. Square brackets hold non-standard residues; d marks the D form. Ends that are not written are not given here. Peptide text beside a SMILES is read from it. * marks the point of attachment. 5TAMRA = CN(C)c1ccc2c(c1)Oc1cc(N(C)C)ccc1C21OC(=O)c2cc(C(=O)*)ccc21

System: E. coli (MG1655)
Format: cell-based, Escherichia coli
Protocol: For all experiments and E. coli strains, cells were grown in a medium (M9gluCAAT) with M9 salts (33.7 mM Na2HPO4, 22mM KH2PO4, 8.55 mM NaCl, 9.35 mM NH4Cl), 0.2% (w/v) glucose, 0.4% (w/v) casamino acids, 1 mM MgSO4, 0.3 mM CaCl2, 1 μg/mL thiamine, and trace elements (13.4 mM ethylene-diamine-tetra-acetic-acid (EDTA), 3.1 mM FeCl3-6H2O, 0.62 mM ZnCl2, 76 μM CuCl2-2H2O, 42 μM CoCl2-2H2O, 162 μM H3BO3, 8.1 μM MnCl2-4H2O). Prior to every experiment, cells were first inoculated into M9gluCAAT and grown to stationary phase at 37°C. For all assays except the biofilm experiments, the culture was diluted to 1/10,000 or more in fresh medium and grown at 37°C until it reached an optical density at 600 nm (OD) of 0.2–0.4. For the biofilm experiments, cells were grown in M9gluCAAT supplemented with 100 μg/mL ampicillin to maintain the GFP-expressing plasmid. The overnight stationary-phase cultures were then diluted into the same medium to an OD of 0.015. See below for details on biofilm growth.
Except for the biofilm experiments, the strains used in this study were derived from MG1655 (ATCC 47076), which was used to estimate the minimum inhibitory concentration (MIC) for all the studied peptides (or peptoids) using a microplate reader (Figure 1A). To detect the timing of outer and inner membrane permeabilization to proteins, strain CJW7845 was constructed to carry two freely diffusing fluorescent proteins: mScarlet-I in the periplasm and mTagBFP2 in the cytoplasm. Construction of CJW7845 was done by transforming pBAD-mTagBFP2 plasmid (Addgene #34632, a gift from Vladislav Verkhusha; ([Subach et al., 2011])) into an E. coli strain expressing a periplasmic mScarlet-I reporter ([Cañas-Duarte 2021]), as previously described ([Chung et al., 1989]). Transformants were restreaked on fresh selection plates and confirmed via microscopy.
To determine the minimal inhibitory concentration (MIC) of the selected AMPs against either MG1655 or ATCC 25922 E. coli strains, exponentially growing cells were diluted in fresh medium to an OD = 10^−6 (~500 cells/mL) and mixed 50:50 with titrated AMP concentrations (which were chosen to be over a range that included the MIC) in a 96-well plate (flat bottom with low evaporation lid, 3595, Corning, Arizona, USA). A final OD of 5 × 10^−7 corresponds to ~250 cells/mL. OD curves were sampled every 5 min for a total of 48 h using a microplate reader (BioTek Synergy 2, Agilent Technologies Inc., California, USA). Raw data were exported as a text file and analysed using a custom-written Python script (microplate_reader_analysis.py). To measure maximum growth rates, the log(OD) was fitted using a linear regression over a 12-point moving window (60 min), which provides the instantaneous growth rate (log(OD)/h), from which the global maximum was computed. The MIC was defined as the minimum AMP concentration for which the maximum growth rate was < 0.2 log(OD)/h within the first 20 h of incubation. Each MIC experiment was performed independently at least three times (with at least two technical replicates each), and the mode across all replicates was taken as the final MIC; in the rare cases of a tie, an additional replicate was performed, which was sufficient to resolve it.

[1] = E. coli MG1655, M9gluCAAT, 37°C, 20 h, inoculum ~250 cells/mL, mode across three biological replicates

In the case of “RSIRRPRLPRPRVPRPYIPPRIPRPVLPPPRFPIPRFPRGR [CamBac, camel bactenecin]”, the “MIC (mode MIC)” value (MG1655, 20 h) is reported as 0.5 µM.
For “GLLRKGGEKIGEKLKKIGQKIKNFFQKLVPQPEQ [CRAMP]”, the “MIC (mode MIC)” value (E. coli MG1655, M9gluCAAT, 37°C, 20 h, inoculum ~250 cells/mL, max growth rate < 0.2 log(OD)/h, mode across three biological replicates with two technical replicates each) was 4 µM.
In the case of “GIGKFLHSAKKFGKAFVGEIMNS [Mag2, magainin-2]”, the “MIC (mode MIC)” value (MG1655, 20 h) is reported as 40 µM.
In the case of `CC[C@@H](C)[C@@H](NC(=O)[C@@H](C)NC(=O)[C@@H](CCCNC(=N)N)NC(=O)[C@@H](Cc1c[nH]c2ccccc12)NC(=O)[C@@H](CCC(N)=O)NC(=O)[C@H](NC(=O)c1ccc2c(c1)C(=O)OC21c2ccc(N(C)C)cc2Oc2cc(N(C)C)ccc21)C(C)C)C(=O)N[C@H](CCCNC(=N)N)C(=O)N[C@@H](C(=O)N[C@H](CCCNC(=N)N)C(=O)N[C@@H](C(=O)N[C@@H](C(=O)N[C@H](CCCNC(=N)N)C(N)=O)[C@H](C)CC)C(C)C)C(C)C` [5-TAMRA-DJK-5] (5TAMRA-[dV][dQ][dW][dR][dA][dI][dR][dV][dR][dV][dI][dR]-NH2; C-terminus assumed), the “MIC (mode MIC) of 5-TAMRA-labeled AMP derivatives” value (MG1655, 20 h) is reported as 2.5 µM.
With `CO[C@H]1/C=C/O[C@@]2(C)Oc3c(C)c(O)c4c(O)c(c(/C=N/N5CCN(C)CC5)c(O)c4c3C2=O)NC(=O)/C(C)=C\C=C\[C@H](C)[C@H](O)[C@@H](C)[C@@H](O)[C@@H](C)[C@H](OC(C)=O)[C@@H]1C` [Rif, rifampicin] the “MIC (mode MIC), antibiotics” value [1] was 16 µg/mL.
With `CC[C@H](C)[C@H](NC(=O)[C@H](CCCCN)NC(=O)[C@H](CCC(=O)O)NC(=O)[C@H](CCCCN)NC(=O)[C@H](CO)NC(=O)[C@H](CCCCN)NC(=O)[C@H](CCCNC(=N)N)NC(=O)[C@H](Cc1ccccc1)NC(=O)[C@H](Cc1ccccc1)NC(=O)[C@H](CC(=O)O)NC(=O)CNC(=O)[C@H](CC(C)C)NC(=O)[C@H](CC(C)C)NC(=O)c1ccc2c(c1)C(=O)OC21c2ccc(N(C)C)cc2Oc2cc(N(C)C)ccc21)C(=O)NCC(=O)N[C@@H](CCCCN)C(=O)N[C@@H](CCC(=O)O)C(=O)N[C@@H](Cc1ccccc1)C(=O)N[C@@H](CCCCN)C(=O)N[C@@H](CCCNC(=N)N)C(=O)N[C@H](C(=O)N[C@H](C(=O)N[C@@H](CCC(N)=O)C(=O)N[C@@H](CCCNC(=N)N)C(=O)N[C@H](C(=O)N[C@@H](CCCCN)C(=O)N[C@@H](CC(=O)O)C(=O)N[C@@H](Cc1ccccc1)C(=O)N[C@@H](CC(C)C)C(=O)N[C@@H](CCCNC(=N)N)C(=O)N[C@@H](CC(N)=O)C(=O)N[C@@H](CC(C)C)C(=O)N[C@H](C(=O)N1CCC[C@H]1C(=O)N[C@@H](CCCNC(=N)N)C(=O)N[C@H](C(=O)N[C@@H](CCC(=O)O)C(=O)N[C@@H](CO)C(=O)O)[C@@H](C)O)C(C)C)[C@@H](C)CC)C(C)C)[C@@H](C)CC` [5-TAMRA-LL-37] the “MIC (mode MIC) of 5-TAMRA-labeled AMP derivatives” value [1] was 2 µM.
`CN[C@@H]1[C@H](O)[C@H](NC)[C@H]2O[C@@]3(O)C(=O)C[C@@H](C)O[C@H]3O[C@@H]2[C@H]1O` [Spect, spectinomycin] was tested, and the “MIC (mode MIC), antibiotics” value [1] was 64 µg/mL.
With “RRIPFWPPNWPGPWLPPWSPPDFRIPRILRKR [Tur1B]” the “MIC (mode MIC)” value (MG1655, 20 h) was 8 µM.
With `CC[C@H](C)[C@H](NC(=O)CNC(=O)[C@H](CC(=O)O)NC(=O)[C@H](CCCNC(=N)N)NC(=O)[C@@H](NC(=O)[C@H](CC(N)=O)NC(=O)[C@H](CCC(N)=O)NC(=O)CNC(=O)[C@@H](NC(=O)[C@H](CCCCN)NC(=O)[C@H](CCC(=O)O)NC(=O)[C@@H](NC(=O)[C@H](CCCCN)NC(=O)[C@H](CCCCN)NC(=O)[C@H](Cc1ccccc1)NC(=O)[C@H](CC(C)C)NC(=O)[C@H](CCCCN)NC(=O)[C@H](Cc1c[nH]c2ccccc12)NC(=O)[C@H](CCCCN)NC(=O)c1ccc2c(c1)C(=O)OC21c2ccc(N(C)C)cc2Oc2cc(N(C)C)ccc21)[C@@H](C)CC)C(C)C)[C@@H](C)CC)C(=O)N[C@H](C(=O)N[C@@H](CCCCN)C(=O)N[C@@H](C)C(=O)NCC(=O)N1CCC[C@H]1C(=O)N[C@@H](C)C(=O)N[C@H](C(=O)N[C@@H](C)C(=O)N[C@H](C(=O)N[C@H](C(=O)NCC(=O)N[C@@H](CCC(N)=O)C(=O)N[C@@H](C)C(=O)N[C@H](C(=O)N[C@@H](CCC(N)=O)C(=O)N[C@H](C(=O)N[C@@H](C)C(=O)N[C@@H](CCCCN)C(N)=O)[C@@H](C)CC)[C@@H](C)O)C(C)C)C(C)C)C(C)C)[C@@H](C)CC` [5-TAMRA-CecA] (5TAMRA-KWKLFKKIEKVGQNIRDGIIKAGPAVAVVGQATQIAK-NH2; C-terminus assumed) the “MIC (mode MIC) of 5-TAMRA-labeled AMP derivatives” value (MG1655, 20 h) was 2 µM.
In the case of `CC[C@H](C)[C@H](NC(=O)[C@H](CCCNC(=N)N)NC(=O)[C@@H]1CCCN1C(=O)[C@@H]1CCCN1C(=O)[C@H](CC(C)C)NC(=O)[C@H](CCCNC(=N)N)NC(=O)[C@@H]1CCCN1C(=O)[C@@H]1CCCN1C(=O)[C@H](Cc1ccccc1)NC(=O)[C@H](Cc1ccccc1)NC(=O)[C@@H]1CCCN1C(=O)[C@@H]1CCCN1C(=O)[C@@H]1CCCN1C(=O)[C@H](CCCNC(=N)N)NC(=O)[C@@H]1CCCN1C(=O)[C@H](CCCNC(=N)N)NC(=O)[C@@H]1CCCN1C(=O)[C@H](CC(C)C)NC(=O)[C@H](Cc1ccc(O)cc1)NC(=O)[C@@H]1CCCN1C(=O)[C@@H]1CCCN1C(=O)[C@H](CCCNC(=N)N)NC(=O)[C@@H]1CCCN1C(=O)[C@H](CCCNC(=N)N)NC(=O)[C@H](CCCNC(=N)N)NC(=O)[C@H](CCCNC(=N)N)NC(=O)c1ccc2c(c1)C(=O)OC21c2ccc(N(C)C)cc2Oc2cc(N(C)C)ccc21)C(=O)N1CCC[C@H]1C(=O)N1CCC[C@H]1C(=O)NCC(=O)N[C@@H](Cc1ccccc1)C(=O)N1CCC[C@H]1C(=O)N1CCC[C@H]1C(=O)N[C@@H](CCCNC(=N)N)C(=O)N[C@@H](Cc1ccccc1)C(=O)N1CCC[C@H]1C(=O)N1CCC[C@H]1C(=O)N[C@@H](CCCNC(=N)N)C(=O)N[C@@H](Cc1ccccc1)C(=O)N1CCC[C@H]1C(N)=O` [5-TAMRA-PR-39] (5TAMRA-RRRPRPPYLPRPRPPPFFPPRLPPRIPPGFPPRFPPRFP-NH2; C-terminus assumed), the “MIC (mode MIC) of 5-TAMRA-labeled AMP derivatives” value (MG1655, 20 h) is reported as 2 µM.
`CC[C@H](C)[C@H](NC(=O)[C@H](CCCNC(=N)N)NC(=O)[C@H](CCCNC(=N)N)NC(=O)c1ccc2c(c1)C(=O)OC21c2ccc(N(C)C)cc2Oc2cc(N(C)C)ccc21)C(=O)N[C@@H](CCCNC(=N)N)C(=O)N1CCC[C@H]1C(=O)N[C@@H](CCCNC(=N)N)C(=O)N1CCC[C@H]1C(=O)N1CCC[C@H]1C(=O)N[C@@H](CCCNC(=N)N)C(=O)N[C@@H](CC(C)C)C(=O)N1CCC[C@H]1C(=O)N[C@@H](CCCNC(=N)N)C(=O)N1CCC[C@H]1C(=O)N[C@@H](CCCNC(=N)N)C(=O)N1CCC[C@H]1C(=O)N[C@@H](CCCNC(=N)N)C(=O)N1CCC[C@H]1C(=O)N[C@@H](CC(C)C)C(=O)N1CCC[C@H]1C(=O)N[C@@H](Cc1ccccc1)C(=O)N1CCC[C@H]1C(=O)N[C@@H](CCCNC(=N)N)C(=O)N1CCC[C@H]1C(=O)NCC(=O)N1CCC[C@H]1C(=O)N[C@@H](CCCNC(=N)N)C(=O)N1CCC[C@H]1C(=O)N[C@H](C(=O)N1CCC[C@H]1C(=O)N[C@@H](CCCNC(=N)N)C(=O)N1CCC[C@H]1C(=O)N[C@@H](CC(C)C)C(=O)N1CCC[C@H]1C(=O)N[C@@H](Cc1ccccc1)C(=O)N1CCC[C@H]1C(=O)O)[C@@H](C)CC` [5-TAMRA-Bac7] (5TAMRA-RRIRPRPPRLPRPRPRPLPFPRPGPRPIPRPLPFP-OH; C-terminus assumed) was tested, and the “MIC (mode MIC) of 5-TAMRA-labeled AMP derivatives” value (MG1655, 20 h) was 0.6 µM.
